The target of one data set is T1, CB1 receptor (Homo sapiens, UniProt P21554).
T1 construct: expressed in transfected cells
Nature of the data set: [35S]-GTPγS binding assay on membranes from cells stably transfected with the CB1 gene, inhibition of CP55940 (EC80). Format: biochemical. The conditions noted are these: half maximal inhibition of GTPγS binding in presence of EC80 concentration of agonist CP55940; CB1-transfected cell membranes. The protocol: Compounds of the present invention are active against the receptor product of the CB1 gene. The affinity of the compounds of the invention for central cannabinoid receptors is demonstrable in methods described in Devane et al, Molecular Pharmacology, 1988, 34, 605 or those described in WO01/70700 or EP 656354. Alternatively the assay may be performed as follows.
10 μg of membranes prepared from cells stably transfected with the CB1 gene were suspended in 200 μl of 100 mM NaCl, 5 mM MgCl2, 1 mM EDTA, 50 mM HEPES (pH 7.4), 1 mM DTT, 0.1% BSA and 100 μM GDP. To this was added an EC80 concentration of agonist (CP55940), the required concentration of test compound and 0.1 μCi [^35S]-GTPγS. The reaction was allowed to proceed at 30° C. for 45 min. […] Filters were then covered with scintilant and counted for the amount of [^35S]-GTPγS retained by the filter.
Activity is measured in the absence of all ligands (minimum activity) or in the presence of an EC80 concentration of CP55940 (maximum activity). […] At various concentrations of novel ligand, activity is calculated as a percentage of the maximum activity and plotted. The data are fitted using the equation y=A+((B−A)/1+((C/x)UD)) and the IC50 value determined as the concentration required to give half maximal inhibition of GTPγS binding under the conditions used.
A general note: GTPγS resists hydrolysis and so accumulates on activated G proteins.

T1 sequence (P21554 whole entry): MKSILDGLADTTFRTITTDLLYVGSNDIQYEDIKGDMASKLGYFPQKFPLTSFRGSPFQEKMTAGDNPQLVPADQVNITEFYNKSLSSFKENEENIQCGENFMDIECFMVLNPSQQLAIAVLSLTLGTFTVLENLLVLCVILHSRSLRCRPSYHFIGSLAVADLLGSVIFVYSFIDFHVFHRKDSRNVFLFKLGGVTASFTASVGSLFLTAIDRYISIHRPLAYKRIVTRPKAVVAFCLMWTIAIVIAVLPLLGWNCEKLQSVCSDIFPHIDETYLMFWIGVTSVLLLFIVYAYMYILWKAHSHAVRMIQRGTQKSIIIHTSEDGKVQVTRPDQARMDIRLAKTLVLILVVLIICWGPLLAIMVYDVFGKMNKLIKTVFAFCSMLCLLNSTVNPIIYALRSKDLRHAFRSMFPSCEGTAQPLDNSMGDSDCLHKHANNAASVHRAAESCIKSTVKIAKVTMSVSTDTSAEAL

The melting point is the temperature, or range, at which the solid turns liquid. In the case of `CCCS(=O)(=O)Oc1ccc(-c2c(C)c(C(=O)NN3CCCCC3)nn2-c2ccc(Cl)cc2Cl)cc1` [Example 1, Propane-1-sulfonic acid 4-[2-(2,4-dichlorophenyl)-4-methyl-5-(piperidin-1-ylcarbamoyl)2H-pyrazol-3-yl]-phenyl Ester], the melting point was 190 °C. As usually defined, the IC50 is the concentration that gives 50% inhibition. Consider `CCCS(=O)(=O)Oc1ccc(-c2c(C)c(C(=O)NC3(C(=O)OC)CCCC3)nn2-c2ccc(Cl)cc2Cl)cc1` [Example 10, Methyl 1-{[(1-(2,4-dichlorophenyl)-4-methyl-5-{4[(propylsulfonyl)oxy]phenyl}-1H-pyrazol-3-yl)carbonyl]amino}cyclopentanecarboxylate], for which the IC50 on CB1 receptor was found to be 6 nM.

Regarding `CCCOC(=O)Oc1ccc(-c2c(C)c(C(=O)NN3CCCCC3)nn2-c2ccc(Cl)cc2Cl)cc1` [Example 11, Carbonic acid 4-[2-(2,4-dichlorophenyl)-4-methyl-5-(piperidine-1-ylcarbamoyl)-2H-pyrazol-3-yl]-phenyl Ester Propyl Ester], the IC50 on CB1 receptor was 6.4 nM.

Values taken from patent publication US20090149463A1, “Therapeutic agents” (priority 2004, published 2009).
